# Earlier results as cited in US20040157925A1, “Stable pharmaceutical composition of pravastatin” (priority 2001, published 2004).
# Conditions: pH 3 or less as found in the stomach; degrades to lactone and 3-a-hydroxy-isopravastatin
smiles,measurement,value
"CC[C@H](C)C(=O)O[C@H]1C[C@H](O)C=C2C=C[C@H](C)[C@H](CC[C@@H](O)C[C@@H](O)CC(=O)O)[C@H]21 [Pravastatin sodium, (+)-(3R, 5R)-3,5-dihydroxy-7-[(1 S,2S,6S, 8S, 8aR)-6-hydroxy-2-methyl-8-[(S)-2-methylbutyryloxy]-1,2,6,7,8,8a-hexahydro-1-naphthyl]heptanoate]",Stability in a low pH environment,very unstable
